{"source": "ChEMBL document CHEMBL4311997", "about": "“Discovery of a potent histone deacetylase (HDAC) 3/6 selective dual inhibitor” (Eur J Med Chem, 2019)", "key": {"[1]": {"target": "Histone-lysine N-methyltransferase SUV39H1 (Homo sapiens) (UniProt O43463)", "sequence (O43463 whole entry)": "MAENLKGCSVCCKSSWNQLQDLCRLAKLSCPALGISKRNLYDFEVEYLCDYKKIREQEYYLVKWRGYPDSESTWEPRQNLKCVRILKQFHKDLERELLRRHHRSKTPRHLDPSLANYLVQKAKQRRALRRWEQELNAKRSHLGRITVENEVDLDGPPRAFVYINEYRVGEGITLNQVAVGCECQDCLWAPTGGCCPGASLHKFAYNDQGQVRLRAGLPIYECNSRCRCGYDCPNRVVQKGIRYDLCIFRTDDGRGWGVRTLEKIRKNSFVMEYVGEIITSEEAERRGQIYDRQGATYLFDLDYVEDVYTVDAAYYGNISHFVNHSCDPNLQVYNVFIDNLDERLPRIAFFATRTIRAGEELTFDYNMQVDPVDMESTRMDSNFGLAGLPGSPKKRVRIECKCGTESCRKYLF", "test": "Inhibition of human SUV39H1 at 100 uM using histone H3 as substrate incubated for 1 hr in presence of [3H]-SAM by filter binding method relative to control"}, "[2]": {"target": "Histone-lysine N-methyltransferase SETD7 (Homo sapiens) (UniProt Q8WTS6)", "sequence (Q8WTS6 whole entry)": "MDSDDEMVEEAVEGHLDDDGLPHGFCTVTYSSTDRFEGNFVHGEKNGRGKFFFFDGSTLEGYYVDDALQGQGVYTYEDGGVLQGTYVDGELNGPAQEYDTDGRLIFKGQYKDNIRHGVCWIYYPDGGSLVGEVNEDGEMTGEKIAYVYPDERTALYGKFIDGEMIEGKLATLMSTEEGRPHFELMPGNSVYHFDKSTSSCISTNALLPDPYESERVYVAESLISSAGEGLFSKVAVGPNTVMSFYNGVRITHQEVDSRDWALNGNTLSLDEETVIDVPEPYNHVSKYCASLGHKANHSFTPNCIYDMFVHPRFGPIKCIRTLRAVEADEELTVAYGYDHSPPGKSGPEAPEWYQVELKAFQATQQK", "test": "Inhibition of human SET7/9 at 100 uM using core histone as substrate incubated for 1 hr in presence of [3H]-SAM by filter binding method relative to control"}, "[3]": {"target": "Histone-lysine N-methyltransferase EHMT2 (Homo sapiens) (UniProt Q96KQ7)", "sequence (Q96KQ7 whole entry, the tested form may be a part)": "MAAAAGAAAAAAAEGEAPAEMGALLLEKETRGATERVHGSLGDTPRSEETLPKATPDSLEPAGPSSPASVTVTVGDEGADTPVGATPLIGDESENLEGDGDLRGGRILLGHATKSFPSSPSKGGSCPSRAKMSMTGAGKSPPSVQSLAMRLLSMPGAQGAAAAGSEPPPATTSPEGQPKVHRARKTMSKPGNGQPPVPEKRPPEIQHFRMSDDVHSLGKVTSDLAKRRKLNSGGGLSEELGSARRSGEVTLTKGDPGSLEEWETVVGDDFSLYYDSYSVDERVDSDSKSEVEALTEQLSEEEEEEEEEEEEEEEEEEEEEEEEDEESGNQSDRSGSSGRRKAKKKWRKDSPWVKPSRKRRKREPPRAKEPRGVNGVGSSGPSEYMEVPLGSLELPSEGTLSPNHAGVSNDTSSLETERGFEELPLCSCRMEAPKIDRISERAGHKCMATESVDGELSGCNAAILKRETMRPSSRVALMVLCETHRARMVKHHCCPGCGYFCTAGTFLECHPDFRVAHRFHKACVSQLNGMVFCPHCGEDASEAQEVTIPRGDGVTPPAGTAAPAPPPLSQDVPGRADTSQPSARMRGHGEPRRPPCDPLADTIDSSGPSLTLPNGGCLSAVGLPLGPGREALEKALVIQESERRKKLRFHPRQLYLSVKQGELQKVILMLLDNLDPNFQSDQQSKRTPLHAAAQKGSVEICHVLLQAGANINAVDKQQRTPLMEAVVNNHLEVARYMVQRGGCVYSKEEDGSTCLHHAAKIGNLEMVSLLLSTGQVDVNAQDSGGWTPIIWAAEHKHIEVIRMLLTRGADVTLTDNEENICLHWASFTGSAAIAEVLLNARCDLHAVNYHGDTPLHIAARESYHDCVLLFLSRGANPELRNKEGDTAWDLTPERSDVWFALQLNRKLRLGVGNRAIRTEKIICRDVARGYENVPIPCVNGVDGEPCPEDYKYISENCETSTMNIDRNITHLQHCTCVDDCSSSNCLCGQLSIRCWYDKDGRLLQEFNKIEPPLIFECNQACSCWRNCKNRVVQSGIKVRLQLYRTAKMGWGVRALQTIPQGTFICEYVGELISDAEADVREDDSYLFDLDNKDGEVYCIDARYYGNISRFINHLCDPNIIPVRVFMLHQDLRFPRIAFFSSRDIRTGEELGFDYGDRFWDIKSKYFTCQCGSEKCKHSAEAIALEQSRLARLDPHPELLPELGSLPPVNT", "test": "Inhibition of human G9a at 100 uM using core histone H3 (1 to 21 residues) as substrate incubated for 1 hr in presence of [3H]-SAM by filter binding method relative to control"}, "[4]": {"target": "Histone-lysine N-methyltransferase, H3 lysine-79 specific (Homo sapiens) (UniProt Q8TEK3)", "test": "Inhibition of human DOT1L at 100 uM using oligo nucleosomes as substrate incubated for 1 hr in presence of [3H]-SAM by filter binding method relative to control"}, "[5]": {"target": "DNA (cytosine-5)-methyltransferase 3A (Homo sapiens, UniProt Q9Y6K1)", "test": "Inhibition of human DNMT3a using lambda DNA as substrate incubated for 1 hr in presence of [3H]-SAM by filter binding method"}, "[6]": {"target": "DNA (cytosine-5)-methyltransferase 1 (Homo sapiens, UniProt P26358)", "test": "Inhibition of human DNMT1 using Poly(dI-dC) as substrate incubated for 1 hr in presence of [3H]-SAM by filter binding method"}, "Homo sapiens [7]": {"organism": "Homo sapiens", "test": "Selectivity ratio of IC50 for human HDAC8 to IC50 for human HDAC6"}, "Homo sapiens [8]": {"organism": "Homo sapiens", "test": "Selectivity ratio of IC50 for human HDAC2 to IC50 for human HDAC6"}, "Histone deacetylase 8": {"target": "Histone deacetylase 8 (Homo sapiens, UniProt Q9BY41)", "sequence (Q9BY41 whole entry)": "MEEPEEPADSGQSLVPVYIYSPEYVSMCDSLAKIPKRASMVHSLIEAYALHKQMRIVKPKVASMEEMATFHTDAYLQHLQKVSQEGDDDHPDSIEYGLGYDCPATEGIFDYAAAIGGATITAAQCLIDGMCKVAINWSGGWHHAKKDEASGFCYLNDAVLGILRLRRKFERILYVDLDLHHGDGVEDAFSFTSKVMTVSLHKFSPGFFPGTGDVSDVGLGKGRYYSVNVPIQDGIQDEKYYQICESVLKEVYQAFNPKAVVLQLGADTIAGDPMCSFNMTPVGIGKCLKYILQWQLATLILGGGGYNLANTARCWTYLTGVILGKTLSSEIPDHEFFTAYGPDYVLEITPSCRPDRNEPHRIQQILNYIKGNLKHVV", "test": "Inhibition of human HDAC8 using Arg-His-Lys (Ac)-Lys (Ac) as substrate incubated for 2 hrs by fluorescence assay"}, "[9]": {"target": "Histone deacetylase 5 (Homo sapiens) (UniProt Q9UQL6)", "sequence (Q9UQL6 whole entry)": "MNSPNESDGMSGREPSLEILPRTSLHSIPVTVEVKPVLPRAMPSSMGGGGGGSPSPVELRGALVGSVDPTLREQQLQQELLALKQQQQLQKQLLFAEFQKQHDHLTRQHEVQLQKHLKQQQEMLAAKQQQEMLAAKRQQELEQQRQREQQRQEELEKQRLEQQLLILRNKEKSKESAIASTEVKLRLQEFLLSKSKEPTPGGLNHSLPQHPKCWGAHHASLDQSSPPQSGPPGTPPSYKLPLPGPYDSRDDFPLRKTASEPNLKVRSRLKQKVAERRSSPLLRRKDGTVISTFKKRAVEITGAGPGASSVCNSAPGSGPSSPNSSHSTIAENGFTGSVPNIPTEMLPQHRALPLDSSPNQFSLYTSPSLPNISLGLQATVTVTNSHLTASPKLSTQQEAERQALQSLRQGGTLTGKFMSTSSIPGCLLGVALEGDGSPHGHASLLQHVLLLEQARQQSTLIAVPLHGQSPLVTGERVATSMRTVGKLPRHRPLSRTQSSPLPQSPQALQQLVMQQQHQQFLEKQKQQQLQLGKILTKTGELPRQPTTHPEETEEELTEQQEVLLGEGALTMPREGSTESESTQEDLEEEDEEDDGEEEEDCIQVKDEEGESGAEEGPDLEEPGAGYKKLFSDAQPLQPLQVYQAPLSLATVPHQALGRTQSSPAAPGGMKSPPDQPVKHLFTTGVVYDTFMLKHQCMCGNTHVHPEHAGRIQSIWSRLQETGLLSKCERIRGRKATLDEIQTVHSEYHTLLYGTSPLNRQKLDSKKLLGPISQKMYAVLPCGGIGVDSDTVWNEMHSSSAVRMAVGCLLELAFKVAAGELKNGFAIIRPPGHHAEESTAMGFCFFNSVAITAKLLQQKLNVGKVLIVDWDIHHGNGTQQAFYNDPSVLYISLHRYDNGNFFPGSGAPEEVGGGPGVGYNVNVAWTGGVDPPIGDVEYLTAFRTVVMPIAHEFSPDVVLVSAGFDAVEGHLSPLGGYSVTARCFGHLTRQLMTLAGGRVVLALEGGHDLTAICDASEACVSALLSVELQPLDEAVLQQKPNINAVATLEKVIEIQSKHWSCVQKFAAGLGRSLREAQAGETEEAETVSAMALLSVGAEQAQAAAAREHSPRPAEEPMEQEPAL", "test": "Inhibition of human HDAC5 at 10 uM using Acetyl-Lys (trifluoroacetyl)-AMC) as substrate incubated for 2 hrs by fluorescence assay relative to control"}, "[10]": {"target": "Histone deacetylase 4 (Homo sapiens) (UniProt P56524)", "test": "Inhibition of human HDAC4 at 10 uM using Acetyl-Lys (trifluoroacetyl)-AMC) as substrate incubated for 2 hrs by fluorescence assay relative to control"}, "Histone deacetylase 3": {"target": "Histone deacetylase 3 (Homo sapiens, UniProt O15379)", "sequence (O15379 whole entry)": "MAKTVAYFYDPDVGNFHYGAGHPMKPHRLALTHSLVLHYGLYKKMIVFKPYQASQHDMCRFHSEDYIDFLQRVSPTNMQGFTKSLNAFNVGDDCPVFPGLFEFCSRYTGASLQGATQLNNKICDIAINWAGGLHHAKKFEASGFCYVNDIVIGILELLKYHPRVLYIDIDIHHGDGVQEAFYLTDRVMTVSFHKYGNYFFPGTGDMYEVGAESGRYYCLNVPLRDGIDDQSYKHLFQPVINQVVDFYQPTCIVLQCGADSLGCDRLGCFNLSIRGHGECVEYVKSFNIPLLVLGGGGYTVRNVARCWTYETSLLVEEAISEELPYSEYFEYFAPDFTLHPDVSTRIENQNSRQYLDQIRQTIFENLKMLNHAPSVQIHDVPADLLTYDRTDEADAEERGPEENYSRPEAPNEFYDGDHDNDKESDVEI", "test": "Inhibition of human HDAC3 using Arg-His-Lys-Lys (Ac) as substrate incubated for 2 hrs by fluorescence assay"}, "Histone deacetylase 2": {"target": "Histone deacetylase 2 (Homo sapiens, UniProt Q92769)", "test": "Inhibition of human HDAC2 using Arg-His-Lys-Lys (Ac) as substrate incubated for 2 hrs by fluorescence assay"}, "MCF7": {"tested_on": "MCF7", "test": "Antiproliferative activity against human MCF7 cells incubated for 72 hrs by MTT assay", "format": "functional, cell-based", "settings": "MCF7, 72 h"}, "MDA-MB-231 [11]": {"tested_on": "MDA-MB-231", "test": "Induction of apoptosis in human MDA-MB-231 cells assessed as necrotic cells at 3 uM incubated for 48 hrs by Annexin V-FITC/PI staining by flow cytometric analysis (reference value: 15%)", "format": "functional"}, "MDA-MB-231 [12]": {"tested_on": "MDA-MB-231", "test": "Induction of apoptosis in human MDA-MB-231 cells assessed as viable cells at 9 uM incubated for 48 hrs by Annexin V-FITC/PI staining by flow cytometric analysis (reference value: 77%)", "format": "functional", "settings": "MDA-MB-231, 48 h, read-out: Activity"}, "MDA-MB-231 [13]": {"tested_on": "MDA-MB-231", "test": "Induction of apoptosis in human MDA-MB-231 cells assessed as early apoptotic cells at 9 uM incubated for 48 hrs by Annexin V-FITC/PI staining by flow cytometric analysis (reference value: 5%)", "format": "functional"}, "MDA-MB-231 [14]": {"tested_on": "MDA-MB-231", "test": "Induction of apoptosis in human MDA-MB-231 cells assessed as late apoptotic cells at 9 uM incubated for 48 hrs by Annexin V-FITC/PI staining by flow cytometric analysis (reference value: 3%)", "format": "functional"}, "[15]": {"target": "Histone deacetylase 1/2/3 (Homo sapiens, UniProt Q13547+O15379+Q92769)", "test": "Inhibition of HDAC1/2/3 in human KMS-12-BM cells assessed as increase in Ac-H3 level incubated for 24 hrs by Western blot analysis", "format": "cell-based"}, "KMS-12-BM": {"tested_on": "KMS-12-BM", "test": "Effect on human KMS-12-BM cells assessed as increase in H3K9Me2 level at 2.5 to 10 uM incubated for 24 hrs by Western blot analysis", "format": "functional, cell-based"}, "[16]": {"test": "Kinetic solubility in pH 7.4 universal buffer measured after 3 hrs by UV spectroscopic analysis", "format": "physicochemical", "settings": "read-out: Kinetic_solubility"}, "[17]": {"test": "Kinetic solubility in pH 7.4 universal buffer measured after 24 hrs by UV spectroscopic analysis", "format": "physicochemical", "settings": "read-out: Kinetic_solubility"}, "[18]": {"test": "Effective permeability of the compound at pH 7.4 measured after 16 hrs by PAMPA assay", "format": "ADME", "settings": "read-out: Peff"}, "[19]": {"test": "Therapeutic Index, ratio of EC50 for human AC10 cells to EC50 for human MDA-MB-231 cells", "format": "toxicity", "settings": "AC10 cells versus MDA-MB-231 cells, read-out: Ratio EC50"}, "[20]": {"test": "Therapeutic Index, ratio of EC50 for mouse TAMH cells to EC50 for human MDA-MB-231 cells", "format": "toxicity", "settings": "TAMH cells versus MDA-MB-231 cells, read-out: Ratio EC50"}, "[21]": {"test": "Genotoxicity in Salmonella typhimurium TA98 in presence of S9 fraction incubated for 48 hrs by Ames test relative to control", "format": "toxicity, subcellular", "settings": "salmonella enterica subsp. enterica serovar typhimurium, s9, 48 h"}, "[22]": {"test": "Cytotoxicity against human AC10 cells incubated for 24 hrs by CellTiter-Glo Cell Viability Assay", "format": "cell-based", "settings": "AC10, 24 h"}, "[23]": {"test": "Half life in mouse liver microsomes at 3 uM preincubated for 5 mins followed by NADPH addition and measured up to 45 mins by LC-MS/MS analysis", "format": "ADME, Microsome"}, "[24]": {"test": "Half life in male rat liver microsomes at 3 uM preincubated for 5 mins followed by NADPH addition and measured up to 45 mins by LC-MS/MS analysis", "format": "ADME, Microsome"}, "[25]": {"test": "Intrinsic clearance in male rat liver microsomes at 3 uM preincubated for 5 mins followed by NADPH addition and measured up to 45 mins by LC-MS/MS analysis", "format": "ADME, Microsome", "settings": "read-out: CLH"}, "Plasmodium falciparum": {"tested_on": "Plasmodium falciparum", "test": "microbe, parasite or virus in culture", "format": "functional, organism-based", "settings": "K1, 48 h", "description": "Antimalarial activity against ring stage Plasmodium falciparum K1 incubated for 48 hrs by Hoechst 33342 staining based fluorescence based assay"}, "Histone deacetylase 11": {"target": "Histone deacetylase 11 (Homo sapiens, UniProt Q96DB2)", "sequence (Q96DB2 whole entry)": "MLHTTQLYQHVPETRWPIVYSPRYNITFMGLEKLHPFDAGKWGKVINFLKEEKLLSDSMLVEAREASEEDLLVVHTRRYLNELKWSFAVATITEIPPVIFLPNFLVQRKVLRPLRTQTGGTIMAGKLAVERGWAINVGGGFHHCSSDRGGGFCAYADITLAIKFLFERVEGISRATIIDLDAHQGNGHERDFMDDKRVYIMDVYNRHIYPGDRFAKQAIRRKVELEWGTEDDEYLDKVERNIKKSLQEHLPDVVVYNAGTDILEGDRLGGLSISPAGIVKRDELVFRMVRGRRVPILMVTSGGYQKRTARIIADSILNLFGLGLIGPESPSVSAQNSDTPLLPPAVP", "test": "Inhibition of human HDAC11 using Acetyl-Lys (trifluoroacetyl)-AMC) as substrate incubated for 2 hrs by fluorescence assay"}, "Homo sapiens [26]": {"organism": "Homo sapiens", "test": "Selectivity ratio of IC50 for human HDAC4 to IC50 for human HDAC6"}, "Homo sapiens [27]": {"organism": "Homo sapiens", "test": "Selectivity ratio of IC50 for human HDAC5 to IC50 for human HDAC6"}, "Homo sapiens [28]": {"organism": "Homo sapiens", "test": "Selectivity ratio of IC50 for inhibition of human HDAC1 to IC50 for inhibition of human HDAC3"}, "Histone deacetylase 1": {"target": "Histone deacetylase 1 (Homo sapiens, UniProt Q13547)", "sequence (Q13547 whole entry)": "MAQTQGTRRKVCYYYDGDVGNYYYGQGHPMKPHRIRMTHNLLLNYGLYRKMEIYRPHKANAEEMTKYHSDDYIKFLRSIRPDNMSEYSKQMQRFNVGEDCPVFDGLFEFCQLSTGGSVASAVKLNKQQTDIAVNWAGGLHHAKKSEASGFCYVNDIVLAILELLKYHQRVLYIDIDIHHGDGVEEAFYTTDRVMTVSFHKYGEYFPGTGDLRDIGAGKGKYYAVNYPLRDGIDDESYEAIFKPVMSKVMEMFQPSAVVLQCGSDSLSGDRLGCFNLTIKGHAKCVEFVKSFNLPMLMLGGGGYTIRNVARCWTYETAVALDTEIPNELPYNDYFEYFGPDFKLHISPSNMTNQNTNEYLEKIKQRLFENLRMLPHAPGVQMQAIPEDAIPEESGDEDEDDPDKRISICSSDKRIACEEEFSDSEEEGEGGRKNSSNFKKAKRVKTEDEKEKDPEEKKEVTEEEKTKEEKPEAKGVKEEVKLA", "description": "Inhibition of human HDAC1 using Arg-His-Lys-Lys (Ac) as substrate incubated for 2 hrs by fluorescence assay"}}, "note": "Activity calls are given as the source filed them. No cut-off for these calls is given here.", "data": [{"smiles": "COc1ccc(CN2CCC(Nc3nc(Nc4ccc(NC(=O)CCCCCCC(=O)NO)cc4)nc4cc(OC)c(OC)cc34)CC2)cc1", "values": [{"measurement": "inhibition", "setting": "[1]", "value": 14, "unit": "%"}, {"measurement": "inhibition", "setting": "[2]", "value": 19, "unit": "%"}, {"measurement": "inhibition", "setting": "[3]", "value": 37, "unit": "%"}, {"measurement": "inhibition", "setting": "[4]", "value": 16, "unit": "%"}, {"measurement": "IC50", "setting": "[5]", "value": 74000, "unit": "nM"}, {"measurement": "IC50", "setting": "[6]", "value": 14000, "unit": "nM"}, {"measurement": "Ratio IC50", "setting": "Homo sapiens [7]", "value": 485}, {"measurement": "Ratio IC50", "setting": "Homo sapiens [8]", "value": 435}, {"measurement": "IC50", "setting": "Histone deacetylase 8", "value": 1260, "unit": "nM"}, {"measurement": "inhibition", "setting": "[9]", "value": 25, "unit": "%"}, {"measurement": "inhibition", "setting": "[10]", "value": 20, "unit": "%"}, {"measurement": "IC50", "setting": "Histone deacetylase 3", "value": 34, "unit": "nM"}, {"measurement": "IC50", "setting": "Histone deacetylase 2", "value": 1130, "unit": "nM"}, {"measurement": "EC50", "setting": "MCF7", "value": 7300, "unit": "nM"}, {"measurement": "Activity", "setting": "MDA-MB-231 [11]", "value": 15, "unit": "%"}, {"measurement": "viability at 9 µM", "setting": "MDA-MB-231 [12]", "value": 57, "unit": "%"}, {"measurement": "Activity", "setting": "MDA-MB-231 [13]", "value": 24, "unit": "%"}, {"measurement": "Activity", "setting": "MDA-MB-231 [14]", "value": 11, "unit": "%"}, {"measurement": "EC50", "setting": "[15]", "value": 7500, "unit": "nM"}, {"measurement": "inhibition", "setting": "[15]", "value": "Dose-dependent effect"}, {"measurement": "Activity", "setting": "KMS-12-BM", "value": "Active"}, {"measurement": "solubility kinetic at 3 h", "setting": "[16]", "value": 4.6, "unit": "µM"}, {"measurement": "solubility kinetic at 24 h", "setting": "[17]", "value": 4, "unit": "µM"}, {"measurement": "Papp at 16 h", "setting": "[18]", "value": 7.9, "unit": "×10⁻⁶ cm/s"}, {"measurement": "selectivity ratio", "setting": "[19]", "value": 15}, {"measurement": "selectivity ratio", "setting": "[20]", "value": 5}, {"measurement": "Activity", "setting": "[21]", "value": "Non-Toxic"}, {"measurement": "EC50", "setting": "[22]", "value": 94000, "unit": "nM"}, {"measurement": "half-life at 3 µM", "setting": "[23]", "value": 0.443, "unit": "h"}, {"measurement": "half-life at 3 µM", "setting": "[24]", "value": 2.38, "unit": "h"}, {"measurement": "microsomal CLint at 3 µM", "setting": "[25]", "value": 16.3, "unit": "µL/min/mg"}, {"measurement": "IC50", "setting": "Plasmodium falciparum", "value": 508, "unit": "nM"}, {"measurement": "IC50", "setting": "Histone deacetylase 11", "value": 1810, "unit": "nM"}, {"measurement": "Ratio IC50", "setting": "Homo sapiens [26]", "value": "> 3000"}, {"measurement": "Ratio IC50", "setting": "Homo sapiens [27]", "value": "> 3000"}, {"measurement": "Ratio IC50", "setting": "Homo sapiens [28]", "value": "26 to 33"}, {"measurement": "IC50", "setting": "Histone deacetylase 1", "value": 896, "unit": "nM"}]}]}
